Assay results: patent US6090945A, “Tetrahydro-beta-carbolines” (Eli Lilly and Company, priority 1998, dated 2000)
Where a name gives a salt, the structure may show the parent alone. Read-outs that look alike come from different tables or passages of the source.

Tests used:
5-HT1c receptor [1] = target: T1, 5-HT1c receptor (Bos taurus, UniProt A0AAA9SBU1); test: 5-HT1c radioligand binding assay ([3H]mesulergine displacement); conditions: read-out: 5HT1C IC50 (binding displacement); choroid plexus; tritiated mesulergine 2.0 nM; 37° C., 15 minutes
T1 sequence (A0AAA9SBU1 33-457): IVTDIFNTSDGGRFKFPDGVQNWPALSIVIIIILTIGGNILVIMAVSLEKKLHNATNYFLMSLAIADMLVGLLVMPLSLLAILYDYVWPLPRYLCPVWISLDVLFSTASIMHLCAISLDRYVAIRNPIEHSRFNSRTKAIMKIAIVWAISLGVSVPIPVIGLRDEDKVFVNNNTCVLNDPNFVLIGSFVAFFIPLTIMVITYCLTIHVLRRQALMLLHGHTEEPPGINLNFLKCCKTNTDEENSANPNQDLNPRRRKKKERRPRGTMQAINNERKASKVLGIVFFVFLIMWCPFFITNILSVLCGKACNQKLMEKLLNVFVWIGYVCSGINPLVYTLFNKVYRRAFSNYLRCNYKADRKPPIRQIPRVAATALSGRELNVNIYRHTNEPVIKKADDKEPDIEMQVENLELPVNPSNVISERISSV
Experimental: I. Assay for 5-HT1c Affinity
(§1) Beef brain was removed immediately after slaughter, and choroid plexus were dissected over ice. […] Tissues were homogenized in 9 volumes of 0.32 mol/L sucrose and centrifuged at 1,000×g for 10 minutes. The supernatant was centrifuged at 17,000×g for 20 minutes. The pellet was suspended in 100 volumes of 50 mM Tris-HCl (pH7.4), incubated at 37° C. for 10 minutes and centrifuged at 50,000×g for 10 minutes, and the process was repeated three times. The final pellets were frozen at -70° C. and used within 2 weeks. Pellets were rehydrated with physiological buffer prior to use.
(§2) The reactions were terminated by rapid filtration, (Brandel Cell Harvestor), through Whatman GF/B glass filters that had been presoaked in Tris buffer pH 7.4. The filters were then washed 2 times with 5 ml of ice cold Tris buffer pH 7.4. Washed filters were placed in scintillation vials and 10 ml RedySolv, (Brandel), was added and samples were counted in a Searle D-300 beta counter. Means and standard error statistics were calculated for triplicate experimental determinations in certain cases. Mean values were obtained from three or more separate determinations. The incubation time for the reaction mixture was 15 minutes at 37° C.

Human 2A = Human 2A (Homo sapiens, UniProt P28223); test: radioligand binding, human 2A; conditions: read-out: Human 2A binding (IC50 converted to Ki)
Experimental: The Kd and Bmax values from the saturation assays were determined for best fit to a one-site or a two-site binding model using a partial F-test. De Lean, A., A. A. Hancock, and R. J. Lefkowitz, Mol. Pharmacol. 21: 5-16 (1981). The following equation was used for a one-site binding model, [formula] where Bound=amount of [^3 H]5-HT specifically bound, Bmax =maximum number of binding sites, Kd =equilibrium dissociation constant and [L]=free concentration of [^3 H]5-HT, or a two-site binding model, [formula] where Bound=amount of [^3 H]5-HT specifically bound, Bmax1 =maximum number of high affinity binding sites, Bmax2 =maximum number of low affinity binding sites, Kd1 =equilibrium dissociation constant for the high affinity site, Kd2 =equilibrium dissociation constant for the low affinity site and [L]=free concentration of [^3 H]5-HT. The IC50 values from the competition assays, the binding parameters for the IP3 standard curve and the EC50 and Emax values from the IP3 assays were determined by nonlinear regression analysis of four parameter logistic equations (Systat, Systat Inc, Evanston, Ill.). De Lean, A., A. A. Hancock, and R. J. Lefkowitz, Mol. Pharmacol., 21: 5-16 (1981). The IC50 values were converted to Ki values using the Cheng-Prusoff equation. Cheng, Y., and W. H. Prusoff, Biochem. Pharmacol., 22: 3099-3108 (1973).

[2] = target: T2, cloned rat 5-HT2B receptor (Rattus norvegicus, UniProt P30994); test: 5-HT2B radioligand binding ([3H]5-HT), cloned rat receptor; conditions: [3H]5-HT 2 nM, read-out: Rat 2B binding (IC50 converted to Ki)
T2 construct: expressed in transfected cells
Experimental: (§3) RAdioligand Binding Studies for 5-HT2 B:
Membrane preparation from transformed cells. Suspension cells expressing the cloned rat 5-HT2B receptor were harvested by centrifugation at 200×g for 15 min at 4° C. […] Membranes for the binding assays were prepared by vortexing the pellet in 50 mM Tris-HCl, pH 7.4 (0.5×10^9 cells/30 ml). The tissue suspension was then centrifuged at 39,800×g for 10 min at 4° C. This procedure was repeated for a total of three washes, with a 10 minute incubation at 37° C. between the first and second wash.
[^3 H]5-HT binding studies. Binding assays were automated using a Biomek 1000 (Beckman Instruments, Fullerton, Calif.) and were performed in triplicate in 0.8 ml total volume. Membrane suspension, 200 μl, (0.04-0.27 mg protein) and 200 μl of drug dilution in water were added to 400 μl of 67 mM Tris-HCl, pH 7.4, containing [^3 H]5-HT, pargyline, CaCl2, and L-ascorbic acid. Final concentrations of pargyline, CaCl2 and L-ascorbic acid were 10 μM, 3 mM and 0.1%, respectively. […] The amount of [^3 H]5-HT trapped on the filters was determined by liquid scintillation spectrometry (Ready Protein and Beckman LS 6000IC, Beckman Instruments, Fullerton, Calif.). For the saturation experiments, actual free radioligand concentrations were determined by sampling the supernatant of parallel saturation experiments in which bound radioactivity had been separated by centrifugation. […] Protein was determined by the method of Bradford, using bovine serum albumin as the standard.
(§4) The Kd and Bmax values from the saturation assays were determined for best fit to a one-site or a two-site binding model using a partial F-test. […] The IC50 values from the competition assays, the binding parameters for the IP3 standard curve and the EC50 and Emax values from the IP3 assays were determined by nonlinear regression analysis of four parameter logistic equations (Systat, Systat Inc, Evanston, Ill.). […]

5-HT2 receptor = 5-HT2 receptor (Rattus norvegicus, UniProt P14842); test: 5-HT2 radioligand binding assay ([3H]ketanserin displacement); parameters: species or system rat (Sprague-Dawley cerebral cortex)
Human 2B = Human 2B (Homo sapiens, UniProt P41595); test: radioligand binding, human 2B; conditions: read-out: Human 2B binding (IC50 converted to Ki)
Experimental: as §3
[^3 H]5-HT binding studies. Binding assays were automated using a Biomek 1000 (Beckman Instruments, Fullerton, Calif.) and were performed in triplicate in 0.8 ml total volume. Membrane suspension, 200 μl, (0.04-0.27 mg protein) and 200 μl of drug dilution in water were added to 400 μl of 67 mM Tris-HCl, pH 7.4, containing [^3 H]5-HT, pargyline, CaCl2, and L-ascorbic acid. Final concentrations of pargyline, CaCl2 and L-ascorbic acid were 10 μM, 3 mM and 0.1%, respectively. Tubes were incubated at 37° C. for 15 min or at 0° C. for 2 hours (binding equilibria were verified for both of these conditions), then rapidly filtered using a Brandel cell harvester (Model MB-48R; Brandel, Gaithersburg, Md.) through Whatman GF/B filters which had been presoaked in 0.5% polyethylenimine and precooled with ice-cold 50 mM Tris-HCl, pH 7.4. The filters were then washed rapidly four times with one ml ice-cold 50 mM Tris-HCl, pH 7.4. The amount of [^3 H]5-HT trapped on the filters was determined by liquid scintillation spectrometry (Ready Protein and Beckman LS 6000IC, Beckman Instruments, Fullerton, Calif.). For the saturation experiments, actual free radioligand concentrations were determined by sampling the supernatant of parallel saturation experiments in which bound radioactivity had been separated by centrifugation. […] 5-HT, 10 μM, or 1-naphthylpiperazine (1-NP), 10 μM, defined nonspecific binding. […] Protein was determined by the method of Bradford, using bovine serum albumin as the standard.
as §4

5-HT1c receptor [3] = test: 5-HT1c radioligand binding assay ([3H]mesulergine displacement); conditions: versus 5-HT2, as shown by Table II
Experimental: I. Assay for 5-HT1c Affinity
as §1, §2

[4] = rat cerebral cortex, tritiated ketanserin 1 nM, 37° C., read-out: 5HT2 IC50 (binding displacement)

Sequence of 5-HT2 receptor (P14842 whole entry): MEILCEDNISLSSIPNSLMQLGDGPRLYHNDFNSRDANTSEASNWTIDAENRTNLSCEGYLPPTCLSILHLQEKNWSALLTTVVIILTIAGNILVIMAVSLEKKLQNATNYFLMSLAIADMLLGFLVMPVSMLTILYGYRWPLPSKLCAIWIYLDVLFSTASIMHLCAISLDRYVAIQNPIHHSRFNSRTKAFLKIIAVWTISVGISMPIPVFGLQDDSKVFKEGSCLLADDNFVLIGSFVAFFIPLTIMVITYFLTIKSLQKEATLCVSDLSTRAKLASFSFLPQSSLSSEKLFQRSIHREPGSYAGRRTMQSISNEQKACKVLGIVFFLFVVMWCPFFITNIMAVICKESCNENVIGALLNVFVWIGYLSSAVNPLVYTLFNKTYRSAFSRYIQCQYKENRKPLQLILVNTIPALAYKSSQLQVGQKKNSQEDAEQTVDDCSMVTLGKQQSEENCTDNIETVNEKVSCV
Sequence of Human 2B (P41595 whole entry): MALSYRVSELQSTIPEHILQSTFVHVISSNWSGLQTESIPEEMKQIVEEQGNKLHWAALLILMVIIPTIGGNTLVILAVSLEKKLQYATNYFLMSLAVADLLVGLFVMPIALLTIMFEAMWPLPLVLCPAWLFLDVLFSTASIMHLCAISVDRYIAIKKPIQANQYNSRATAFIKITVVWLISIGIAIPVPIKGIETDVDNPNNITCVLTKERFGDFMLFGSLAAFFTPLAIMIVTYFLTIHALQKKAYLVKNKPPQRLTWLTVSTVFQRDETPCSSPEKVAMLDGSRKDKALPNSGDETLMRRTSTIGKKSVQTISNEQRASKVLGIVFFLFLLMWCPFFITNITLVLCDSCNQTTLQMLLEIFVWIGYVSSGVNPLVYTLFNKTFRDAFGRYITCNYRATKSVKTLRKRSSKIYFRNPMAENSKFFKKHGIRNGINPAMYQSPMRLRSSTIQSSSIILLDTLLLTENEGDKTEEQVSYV
T2 sequence (P30994 whole entry): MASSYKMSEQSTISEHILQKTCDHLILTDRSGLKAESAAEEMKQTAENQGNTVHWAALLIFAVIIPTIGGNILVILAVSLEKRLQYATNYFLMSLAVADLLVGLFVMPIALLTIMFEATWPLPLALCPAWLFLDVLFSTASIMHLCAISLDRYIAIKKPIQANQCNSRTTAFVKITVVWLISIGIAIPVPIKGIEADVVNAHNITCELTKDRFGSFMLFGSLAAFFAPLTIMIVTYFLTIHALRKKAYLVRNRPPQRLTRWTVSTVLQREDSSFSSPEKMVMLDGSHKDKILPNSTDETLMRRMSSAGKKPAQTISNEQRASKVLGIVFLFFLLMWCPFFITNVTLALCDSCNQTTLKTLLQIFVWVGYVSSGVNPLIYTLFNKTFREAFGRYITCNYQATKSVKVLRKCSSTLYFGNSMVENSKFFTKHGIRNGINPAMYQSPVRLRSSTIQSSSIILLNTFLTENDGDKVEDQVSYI
Sequence of Human 2A (P28223 whole entry): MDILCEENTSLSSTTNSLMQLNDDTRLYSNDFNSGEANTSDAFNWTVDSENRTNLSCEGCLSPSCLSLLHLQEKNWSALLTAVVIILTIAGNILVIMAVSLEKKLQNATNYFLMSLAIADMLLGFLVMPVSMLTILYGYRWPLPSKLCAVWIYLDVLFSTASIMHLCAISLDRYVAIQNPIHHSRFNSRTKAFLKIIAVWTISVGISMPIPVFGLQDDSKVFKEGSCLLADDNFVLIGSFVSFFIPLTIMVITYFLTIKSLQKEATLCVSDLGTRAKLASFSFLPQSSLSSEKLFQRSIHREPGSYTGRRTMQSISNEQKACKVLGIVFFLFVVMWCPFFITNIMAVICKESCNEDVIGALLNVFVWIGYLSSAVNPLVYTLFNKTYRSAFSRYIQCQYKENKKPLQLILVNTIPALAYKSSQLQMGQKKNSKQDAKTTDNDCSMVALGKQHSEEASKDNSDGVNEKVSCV

For `COc1ccc([C@@H](C)[C@@H]2NCCc3c2[nH]c2cc(C)c(C)cc32)cc1OC` (relative stereo) [Example 41, (±) 6,7-dimethyl-1-[(3,4-dimethoxyphenyl)-1-ethyl]-1,2,3,4-tetrahydro-9H-pyrido[3,4-b]indole (Z)-2-butenedioate], the IC50 (5-HT1c receptor [1]) was 127 nM, the Ki (Human 2A) was 23.1 nM and the Ki [2] was 6.42 nM. For the same molecule, the IC50 (5-HT2 receptor; [4]) was 173 nM and the Ki (Human 2B) was 2.01 nM.
In the case of `COc1ccc(CC2NCCc3c2[nH]c2cc(C)c(C)cc32)cc1OC` (centres unmarked) [Example 16, 6,7-dimethyl-1,2,3,4-tetrahydro-1-[(3,4-dimethoxyphenyl)methyl]-9H-pyrido[3,4b]indole], the “5-HT1c selectivity (low IC50 in 5-HT1c assay, higher IC50 in 5-HT2 assay)” value (“5-HT1c selectivity” below) (5-HT1c receptor [3]) is reported as “particularly 5-HT1c selective”, the IC50 (5-HT1c receptor [1]) is reported as 63 nM and the IC50 (5-HT2 receptor; [4]) is reported as 2110 nM.
`COc1ccc(CC2NCCc3c2[nH]c2ccc(C)cc32)c(OC)c1OC` (centres unmarked) [Example 22, 6-methyl-1-[(2,3,4-trimethoxyphenyl)-methyl]-1,2,3,4-tetrahydro-9H-pyrido[3,4-b]indole hydrochloride] gave an IC50 (5-HT1c receptor [1]) of 30 nM, a Ki [2] of 5.39 nM and an IC50 (5-HT2 receptor) of 1420 nM.
`COc1ccc([C@@H](C)[C@@H]2NCCc3c2[nH]c2ccc(C)cc32)cc1OC` (relative stereo) [Example 40] showed an IC50 (5-HT1c receptor [1]) of 171 nM, a Ki (Human 2A) of 44.5 nM and a Ki [2] of 5.61 nM. The IC50 (5-HT2 receptor; [4]) was 293 nM and the Ki (Human 2B) was 1.4 nM.
With `COc1ccc(CC2NCCc3c2[nH]c2c(F)cc(F)cc32)cc1OC` (centres unmarked) [Example 6, 6,8-difluoro-1-[(3,4-dimethoxyphenyl)-methyl]-1,2,3,4-tetrahydro-9H-pyrido[3,4-b]indole] the “5-HT1c selectivity” value (5-HT1c receptor [3]) was “particularly 5-HT1c selective”, the IC50 (5-HT1c receptor [1]) was 43 nM and the IC50 (5-HT2 receptor; [4]) was 168 nM.
With `COc1ccc(CC2NCCc3c2[nH]c2c(Br)c(C)ccc32)cc1OC.Cl` (centres unmarked) [Example 7, 7-methyl-8-bromo-1-[(3,4-dimethoxyphenyl)-methyl]-1,2,3,4-tetrahydro-9H-pyrido[3,4-b]indole hydrochloride] the “5-HT1c selectivity” value (5-HT1c receptor [3]) was “particularly 5-HT1c selective”, the IC50 (5-HT1c receptor [1]) was 5.1 nM and the IC50 (5-HT2 receptor) was greater than 100 nM.
For `COc1ccc(CC2NCCc3c2[nH]c2cc(C)cc(C)c32)cc1OC` (centres unmarked) [Example 15, 5,7-dimethyl-1,2,3,4-tetrahydro-1-[(3,4-dimethoxyphenyl)methyl]-9H-pyrido[3,4b]indole hydrochloride], the “5-HT1c selectivity” value (5-HT1c receptor [3]) was “particularly 5-HT1c selective”, the IC50 (5-HT1c receptor [1]) was 14 nM and the IC50 (5-HT2 receptor; [4]) was greater than 100 nM.
`COc1ccc(CC2NCCc3c2[nH]c2c3ccc3ccccc32)cc1OC` (centres unmarked) [Example 10, 7,8,9,10-tetrahydro-10-[(3,4-dimethoxyphenyl)methyl]-11H-benzo [g]pyrido[3,4-b]indole] was tested, and the “5-HT1c selectivity” value (5-HT1c receptor [3]) was “particularly 5-HT1c selective”, the IC50 (5-HT1c receptor [1]) was 43 nM and the IC50 (5-HT2 receptor; [4]) was 219 nM.
For `CC[C@H](c1ccc(OC)c(OC)c1)[C@@H]1NCCc2c1[nH]c1ccc(C)cc21` (relative stereo) [Example 43, (±) 6-methyl-1-[(3,4-dimethoxyphenyl)-1-propyl]-1,2,3,4-tetrahydro-9H-pyrido[3,4-b]indole (Z)-2-butenedioate], the IC50 (5-HT1c receptor [1]) was 139 nM, the Ki (Human 2A) was 17.5 nM and the IC50 (5-HT2 receptor; [4]) was 178 nM. The Ki (Human 2B) was 0.87 nM.
In the case of `COc1ccc(CC2NCCc3c2[nH]c2ccc(C(C)C)cc32)cc1OC` (centres unmarked) [Example 13, 6-(1-methylethyl)-1,2,3,4-tetrahydro-1-[(3,4-dimethoxyphenyl)methyl]-9H-pyrido[3,4b]indole], the “5-HT1c selectivity” value (5-HT1c receptor [3]) is reported as “particularly 5-HT1c selective”, the IC50 (5-HT1c receptor [1]) is reported as 48 nM and the IC50 (5-HT2 receptor; [4]) is reported as 433 nM.
